Reference: patent US9708628B2, “Cationic lipid having improved intracellular kinetics” (NOF CORPORATION, priority 2011, dated 2017)
“Also recorded” adds a separate entry of the source.

Assays:
[1] = Electron microscope observation by staining method; assay type: physicochemical; conditions: phosphotungstic acid staining
Method: MENDs of B-2 (Example 1) and B-2-4 (Example 4) were prepared according to [Experimental Example 1] (1), (2) and [Experimental Example 15]. For the preparation, PEG2000-DMG was used as PEG lipid, and MEND solutions corresponding to 1.38 mM of the lipid concentration were prepared. A 50% sucrose solution (pH 5.3) (5 mL) was added to a centrifugation tube, on which a 10% sucrose solution (pH 5.3) (5 mL) was layered, and a MEND solution (1.5 mL) was further overlaid to form an discontinuous density gradient. Purification was performed by ultracentrifugation (110000 g, 2 h, 25° C.) (Optima™ L-90K Ultracentrifuge, Sw41Ti, BECKMAN). The interface (4 ml) of sucrose density 10% and 50% was recovered, and sucrose was removed by ultrafiltration (1000 g, 3 min, 25° C.) to give a sample solution. A 2-fold diluted sample solution was adsorbed to a 400 mesh carbon film TEM grid, which was absorbed by a filter paper. A 2% phosphotungstic acid solution (pH 7.0) was added and the mixture was stood for 10 seconds. For observation, a transmission electron microscope (JEM-1200EX, JEOL Ltd.) was used. Accelerating voltage was set to 80 kV, and images were taken by a CCD camera (VELETA, JEOL Ltd.).

HT1080 cells [2] = test: Time-course of intracellular uptake amount of MEND (Cy5-labeled pDNA, FACS); assay type: cell-based; conditions: pDNA 1.6 μg/2 mL/well; 1, 3, 6 hr
Method: MENDs of B-2-4 (Example 4), B-2 (Example 1) were prepared according to [Experimental Example 1] (1), (2), [Experimental Example 15]. For the preparation, PEG2000-DMG was used as PEG lipid, and MEND solutions corresponding to 0.55 mM of the lipid concentration were prepared. For cationic MEND, lipids having a composition of DOTAP (Comparative Example 3):DOPE:Chol:=3:4:3 were used, and the cationic MEND was prepared according to the method described in [Experimental Example 1] (3). pDNA was labeled with fluorescence according to the method described in [Experimental Example 15] (2).
HT1080 cells were plated on a 6-well plate at 2×10^5 cells/2 mL/well 24 hr before, various sample MENDs were diluted with DMEM (FBS+) to a pDNA concentration of 1.6 μg/2 mL/well and transfected into the well. After 1, 3, 6 hr, MEND-containing DMEM was removed, and the cells were washed twice with heparin (20 units/mL, 1 mL), and further once with PBS(−) (1 mL). 0.05% Trypsin solution (500 μL) was added, and the cells were stood in an incubator at 37° C. for 3 min. DMEM (FBS+) (1 mL) was added and the mixture was centrifuged (700 g, 4° C., 5 min). The supernatant was removed and the cells were suspended in FACS buffer (1 mL). […] The suspension was passed through a 44 μm nylon mesh immediately before the measurement, and the fluorescence intensity of intracellular Cy5 was measured.

HT1080 cells [3] = test: Decapsulation efficiency over time (3, 6, 9, 12 hr); assay type: cell-based; conditions: 3, 6, 9, 12 hr after transfection
Text: For MEND preparation, Rhodamine-labeled pDNA prepared by the method of [Experimental Example 1] (4) was used. For preparation of MEND encapsulating the rhodamine-labeled pDNA, 50% of the pDNA solution described in [Experimental Example 1] (1) was replaced by the rhodamine-labeled pDNA. In addition, the lipid constituting the MEND was labeled with fluorescence by the method described in [Experimental Example 1] (3). MENDs having a composition of B-2-4 […]:DOPE:Chol=3:3:4, B-2 […]:SOPE:Chol=5:3:2 were prepared by the method described in [Experimental Example 1] (2). For the preparation, PEG2000-DMG was used as PEG lipid, and MEND solutions corresponding to 0.55 mM of the lipid concentration were prepared.
HT1080 cells were plated on a glass bottom dish at 5×10^4 cells/2 mL/dish 24 hr before. MEND was diluted with DMEM (FBS 10%+) to achieve pDNA 1.6 μg/2 mL and transfected into cells. 3, 6, 9, 12 hr later, the cells were washed twice with heparin solution (20 units/mL, 2 mL), Krebs buffer (1 mL) was added, and the images at 3, 6, 9, 12 hr after the transfection were obtained by a confocal laser scan microscope.
Rhodamine-labeled pDNA and lipid membrane of MEND were shown in pseudo colors of red and green, respectively. The decapsulation efficiency was calculated according to the following formula.

HT1080 cells [4] = test: Intracellular uptake pathway: influence of sucrose, amiloride, filipin on gene expression activity; assay type: cell-based; conditions: 0.3M sucrose, 1.5 mM amiloride
Method: Using compositions of B-2-4 (Example 4):DOPE:Chol=3:3:4, B-2 (Example 1):SOPE:Chol=5:3:2 as lipid, MENDs were prepared according to [Experimental Example 1] (1), (2). For the preparation, PEG2000-DMG was used as PEG lipid, and MEND solutions corresponding to 0.55 mM of the lipid concentration were prepared.
HT1080 cells were plated on a 24-well plate at 4×10^4 cells/500 μL/well 24 hr before. The medium was changed to DMEM (FBS+) containing filipin at a final concentration of […] 30 min before transfection. The medium was changed to DMEM (FBS+) containing a final concentration of 0.3M sucrose, and 1.5 mM amiloride 15 min before transfection. For transfection, various MENDs were added to the well at 0.8 μg/500 μL/well based on the pDNA amount. Thereafter, the gene expression activity was evaluated by the method described in [Experimental Example 4] (2).

HT1080 cells [5] = test: Influence of endosomal acidification inhibitor BafA1 (Kronos Dio); assay type: cell-based; conditions: 0.5 μM BafA1
Method: MENDs of B-2-4 (Example 4), B-2 (Example 1) were prepared according to [Experimental Example 1] (1), (2), [Experimental Example […]]. For the preparation, PEG2000-DMG was used as PEG lipid, and MEND solutions corresponding to 0.55 mM of the lipid concentration were prepared.
HT1080 cells were plated on a 3.5 cm cell culture dish at 4×10^4 cells/2 mL/dish 24 hr before. The medium was changed to DMEM (FBS 10%+) containing 0.5 μM BafA1 (Bafilomycin A1) 30 min before transfection. 30 min later, various MENDs were added to the dish at 1.6 μg/2 mL/dish based on the pDNA amount. 3 hr after the transfection, the medium was changed to DMEM (FBS 10%+, Phenol red free) containing a final concentration 200 μM of D-luciferin potassium. According to the Kronos Dio package insert, the luminescence amount was measured for 2 min every 20 min and taken as the luciferase activity (RLU/2 min).

For `CC1=C(/C=C/C(C)=C/C=C/C(C)=C/C(=O)OCCCN(C)CCSSCCN(C)CCCOC(=O)/C=C(C)/C=C/C=C(C)/C=C/C2=C(C)CCCC2(C)C)C(C)(C)CCC1` [Example B-2-4], the “structure of MEND by transmission electron microscope” value [1] was “structure coated with a monolayer lipid membrane”, the “intracellular uptake amount (Cy5-labeled pDNA)” value (HT1080 cells [2]) was “low as compared to the MENDs using DOTAP; also recorded: more highly uptaken than B-2” and the decapsulation efficiency (HT1080 cells [3]) was “gradual decapsulation with the passage of time”. For the same molecule, the “gene expression with sucrose, amiloride, filipin” value (HT1080 cells [4]) was “inhibited by amiloride” and the “activity under endosomal acidification inhibition using BafA1” value (HT1080 cells [5]) was “inhibited”.

In the case of `CCCCCCCCCCCCCC(=O)OCCCN(C)CCSSCCN(C)CCCOC(=O)CCCCCCCCCCCCC` [Example B-2], the “structure of MEND by transmission electron microscope” value [1] is reported as “structure coated with a monolayer lipid membrane”, the “intracellular uptake amount (Cy5-labeled pDNA)” value (HT1080 cells [2]) is reported as “low as compared to the MENDs using DOTAP” and the decapsulation efficiency (HT1080 cells [3]) is reported as “good decapsulation from early stages”. For the same molecule, the “gene expression with sucrose, amiloride, filipin” value (HT1080 cells [4]) was “inhibited by sucrose and amiloride” and the “activity under endosomal acidification inhibition using BafA1” value (HT1080 cells [5]) was “inhibited”.
